From US11572399B2, “Long-acting GIP peptide analogues” (University of Copenhagen, priority 2017, dated 2023)
Like-named read-outs stand apart in the source and are kept apart here. Peptide text beside a SMILES is read from it. * marks the point of attachment. C16 diacid = O=C(O)CCCCCCCCCCCCCCC(=O)*; Palmitoyl = CCCCCCCCCCCCCCCC(=O)*

How the values were obtained:
human GIP receptor [1] = target: T1, human GIP receptor (Homo sapiens, UniProt P48546); test: cAMP accumulation assay, antagonism of a GIP-mediated cAMP response (50-80% of max); format: cell-based; details: transiently transfected COS-7 cells
T1 construct: host or cells: COS-7, transient transfection (calcium phosphate), cDNA in pCMV-Script
T1 sequence (P48546 22-466): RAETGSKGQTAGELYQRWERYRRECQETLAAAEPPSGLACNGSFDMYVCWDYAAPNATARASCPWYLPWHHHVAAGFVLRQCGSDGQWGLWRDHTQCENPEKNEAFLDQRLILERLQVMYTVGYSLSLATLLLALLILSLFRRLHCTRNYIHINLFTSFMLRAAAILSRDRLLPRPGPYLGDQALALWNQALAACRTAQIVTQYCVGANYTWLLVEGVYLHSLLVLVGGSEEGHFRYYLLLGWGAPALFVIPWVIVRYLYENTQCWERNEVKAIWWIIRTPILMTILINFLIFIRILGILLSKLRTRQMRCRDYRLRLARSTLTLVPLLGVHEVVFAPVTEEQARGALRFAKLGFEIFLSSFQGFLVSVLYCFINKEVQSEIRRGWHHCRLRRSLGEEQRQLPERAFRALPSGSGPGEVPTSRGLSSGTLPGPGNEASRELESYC
Protocol: The day after, the cells were washed twice with Hepes buffered saline (HBS) buffer and incubated with HBS and 1 mM 3-isobutyl-1-methylxanthine (IBMX) for 30 min at 37° C. […] The HitHunter™ cAMP XS assay (DiscoveRx) was carried out according to the manufacturer's instructions.

human GIP receptor [2] = target: T1, human GIP receptor; test: cAMP accumulation assay, agonism (ligand alone); format: cell-based; details: Table 1; for Emax: COS-7, intrinsic cAMP activity
[3] = Table 1 and text, read-out: cAMP antagonism nM (IC50, antagonistic potency)
[4] = COS-7 cells, read-out: cAMP agonism nM (EC50)

SMILES | IC50 (human GIP receptor [1]; [3]) [nM] | Emax (human GIP receptor [2]; COS-7 cells) [%] | EC50 (human GIP receptor [2]; [4]) [nM] | cAMP agonism Emax (human GIP receptor [2]; intrinsic cAMP activity, COS-7 cells) | IC50 (human GIP receptor [1]; given as log IC50 (negative sign), Table 1, read-out: cAMP antagonism log (converted)) [nM] | EC50 (human GIP receptor [2]; given as log EC50 (negative sign), read-out: cAMP agonism EC50 (log) (converted)) [nM]
CC[C@H](C)[C@H](NC(=O)[C@H](CO)NC(=O)[C@H](Cc1ccc(O)cc1)NC(=O)[C@H](CC(=O)O)NC(=O)[C@H](CCCCNC(=O)CCCCCCCCCCCCCCC(=O)O)NC(=O)[C@@H](NC(=O)[C@H](Cc1ccccc1)NC(=O)[C@@H](NC(=O)CNC(=O)[C@@H](N)CCC(=O)O)[C@@H](C)O)[C@@H](C)CC)C(=O)N[C@@H](C)C(=O)N[C@@H](CCSC)C(=O)N[C@@H](CC(=O)O)C(=O)N[C@@H](CCCCN)C(=O)N[C@H](C(=O)N[C@@H](Cc1c[nH]cn1)C(=O)N[C@@H](CCC(N)=O)C(=O)N[C@@H](CCC(N)=O)C(=O)N[C@@H](CC(=O)O)C(=O)N[C@@H](Cc1ccccc1)C(=O)N[C@H](C(=O)N[C@@H](CC(N)=O)C(=O)N[C@@H](Cc1c[nH]c2ccccc12)C(=O)N[C@@H](CC(C)C)C(=O)N[C@@H](CC(C)C)C(=O)N[C@@H](C)C(=O)N[C@@H](CCC(N)=O)C(=O)N[C@@H](CCCCN)C(N)=O)C(C)C)[C@@H](C)CC [AT299, [hGIP(3-30)NH2[S8K]-C16diacid/8]] (H-EGTFIK(C16 diacid)DYSIAMDKIHQQDFVNWLLAQK-NH2; N-terminus assumed) | 199 | 15.2 | 15 | – | – | –
CC[C@H](C)[C@H](NC(=O)[C@H](CO)NC(=O)[C@H](Cc1ccc(O)cc1)NC(=O)[C@H](CCCCNC(=O)CCCCCCCCCCCCCCC(=O)O)NC(=O)[C@H](CO)NC(=O)[C@@H](NC(=O)[C@H](Cc1ccccc1)NC(=O)[C@@H](NC(=O)CNC(=O)[C@@H](N)CCC(=O)O)[C@@H](C)O)[C@@H](C)CC)C(=O)N[C@@H](C)C(=O)N[C@@H](CCSC)C(=O)N[C@@H](CC(=O)O)C(=O)N[C@@H](CCCCN)C(=O)N[C@H](C(=O)N[C@@H](Cc1c[nH]cn1)C(=O)N[C@@H](CCC(N)=O)C(=O)N[C@@H](CCC(N)=O)C(=O)N[C@@H](CC(=O)O)C(=O)N[C@@H](Cc1ccccc1)C(=O)N[C@H](C(=O)N[C@@H](CC(N)=O)C(=O)N[C@@H](Cc1c[nH]c2ccccc12)C(=O)N[C@@H](CC(C)C)C(=O)N[C@@H](CC(C)C)C(=O)N[C@@H](C)C(=O)N[C@@H](CCC(N)=O)C(=O)N[C@@H](CCCCN)C(N)=O)C(C)C)[C@@H](C)CC [AT300, [hGIP(3-30)NH2[D9K]-C16diacid/9]] (H-EGTFISK(C16 diacid)YSIAMDKIHQQDFVNWLLAQK-NH2; N-terminus assumed) | 22 | – | – | no ag. | – | –
CCCCCCCCCCCCCCCC(=O)NCCCC[C@H](NC(=O)[C@@H](NC(=O)[C@H](CCCCN)NC(=O)[C@H](CC(=O)O)NC(=O)[C@H](CCSC)NC(=O)[C@H](C)NC(=O)[C@@H](NC(=O)[C@H](CO)NC(=O)[C@H](Cc1ccc(O)cc1)NC(=O)[C@H](CC(=O)O)NC(=O)[C@H](CO)NC(=O)[C@@H](NC(=O)[C@H](Cc1ccccc1)NC(=O)[C@@H](N)[C@@H](C)O)[C@@H](C)CC)[C@@H](C)CC)[C@@H](C)CC)C(=O)N[C@@H](CCC(N)=O)C(=O)N[C@@H](CCC(N)=O)C(=O)N[C@@H](CC(=O)O)C(=O)N[C@@H](Cc1ccccc1)C(=O)N[C@H](C(=O)N[C@@H](CC(N)=O)C(=O)N[C@@H](Cc1c[nH]c2ccccc12)C(=O)N[C@@H](CC(C)C)C(=O)N[C@@H](CC(C)C)C(=O)N[C@@H](C)C(=O)N[C@@H](CCC(N)=O)C(=O)N[C@@H](CCCCN)C(N)=O)C(C)C [AT145, [hGIP(5-30)NH2[H18K]-C16/18]] (H-TFISDYSIAMDKIK(Palmitoyl)QQDFVNWLLAQK-NH2; N-terminus assumed) | 66 | 16 | 33 | – | – | –
CC[C@H](C)[C@H](NC(=O)[C@H](CO)NC(=O)[C@H](Cc1ccc(O)cc1)NC(=O)[C@H](CC(=O)O)NC(=O)[C@H](CO)NC(=O)[C@@H](NC(=O)[C@H](Cc1ccccc1)NC(=O)[C@@H](NC(=O)CNC(=O)[C@@H](N)CCC(=O)O)[C@@H](C)O)[C@@H](C)CC)C(=O)N[C@@H](C)C(=O)N[C@@H](CCSC)C(=O)N[C@@H](CC(=O)O)C(=O)N[C@@H](CCCCN)C(=O)N[C@H](C(=O)N[C@@H](Cc1c[nH]cn1)C(=O)N[C@@H](CCC(N)=O)C(=O)N[C@@H](CCC(N)=O)C(=O)N[C@@H](CC(=O)O)C(=O)N[C@@H](Cc1ccccc1)C(=O)N[C@H](C(=O)N[C@@H](CC(N)=O)C(=O)N[C@@H](Cc1c[nH]c2ccccc12)C(=O)N[C@@H](CC(C)C)C(=O)N[C@@H](CC(C)C)C(=O)N[C@@H](C)C(=O)N[C@@H](CCCCNC(=O)CCCCCCCCCCCCCCC(=O)O)C(=O)N[C@@H](CCCCN)C(N)=O)C(C)C)[C@@H](C)CC [AT318, [hGIP(3-30)NH2[Q29K]-C16diacid/29]] (H-EGTFISDYSIAMDKIHQQDFVNWLLAK(C16 diacid)K-NH2; N-terminus assumed) | 224 | 10.8 | 131 | – | – | –
CC[C@H](C)[C@H](NC(=O)[C@H](CO)NC(=O)[C@H](Cc1ccc(O)cc1)NC(=O)[C@H](CC(=O)O)NC(=O)[C@H](CO)NC(=O)[C@@H](NC(=O)[C@H](Cc1ccccc1)NC(=O)[C@@H](N)[C@@H](C)O)[C@@H](C)CC)C(=O)N[C@@H](C)C(=O)N[C@@H](CCSC)C(=O)N[C@@H](CC(=O)O)C(=O)N[C@@H](CCCNC(=N)N)C(=O)N[C@H](C(=O)N[C@@H](CCCCNC(=O)CCCCCCCCCCCCCCC(=O)O)C(=O)N[C@@H](CCC(N)=O)C(=O)N[C@@H](CCC(N)=O)C(=O)N[C@@H](CC(=O)O)C(=O)N[C@@H](Cc1ccccc1)C(=O)N[C@H](C(=O)N[C@@H](CC(N)=O)C(=O)N[C@@H](Cc1c[nH]c2ccccc12)C(=O)N[C@@H](CC(C)C)C(=O)N[C@@H](CC(C)C)C(=O)N[C@@H](C)C(=O)N[C@@H](CCC(N)=O)C(=O)N[C@@H](CCCNC(=N)N)C(N)=O)C(C)C)[C@@H](C)CC [AT157, [hGIP(5-30)NH2[K16R; H18K; K30R]-C16diacid/18]] (H-TFISDYSIAMDRIK(C16 diacid)QQDFVNWLLAQR-NH2; N-terminus assumed) | 7 | 12 | – | – | 7.94 | 10
CC[C@H](C)[C@H](NC(=O)[C@H](CO)NC(=O)[C@H](Cc1ccc(O)cc1)NC(=O)[C@H](CC(=O)O)NC(=O)[C@H](CO)NC(=O)[C@@H](NC(=O)[C@H](Cc1ccccc1)NC(=O)[C@@H](NC(=O)CNC(=O)[C@@H](N)CCC(=O)O)[C@@H](C)O)[C@@H](C)CC)C(=O)N[C@@H](C)C(=O)N[C@@H](CCSC)C(=O)N[C@@H](CCCCNC(=O)CCCCCCCCCCCCCCC(=O)O)C(=O)N[C@@H](CCCCN)C(=O)N[C@H](C(=O)N[C@@H](Cc1c[nH]cn1)C(=O)N[C@@H](CCC(N)=O)C(=O)N[C@@H](CCC(N)=O)C(=O)N[C@@H](CC(=O)O)C(=O)N[C@@H](Cc1ccccc1)C(=O)N[C@H](C(=O)N[C@@H](CC(N)=O)C(=O)N[C@@H](Cc1c[nH]c2ccccc12)C(=O)N[C@@H](CC(C)C)C(=O)N[C@@H](CC(C)C)C(=O)N[C@@H](C)C(=O)N[C@@H](CCC(N)=O)C(=O)N[C@@H](CCCCN)C(N)=O)C(C)C)[C@@H](C)CC [AT306, [hGIP(3-30)NH2[D15K]-C16diacid/15]] (H-EGTFISDYSIAMK(C16 diacid)KIHQQDFVNWLLAQK-NH2; N-terminus assumed) | 53 | 6.6 | 13 | – | – | –
CCCCCCCCCCCC(=O)NCCCC[C@H](NC(=O)[C@H](CCC(N)=O)NC(=O)[C@H](C)NC(=O)[C@H](CC(C)C)NC(=O)[C@H](CC(C)C)NC(=O)[C@H](Cc1c[nH]c2ccccc12)NC(=O)[C@H](CC(N)=O)NC(=O)[C@@H](NC(=O)[C@H](Cc1ccccc1)NC(=O)[C@H](CC(=O)O)NC(=O)[C@H](CCC(N)=O)NC(=O)[C@H](CCC(N)=O)NC(=O)[C@H](Cc1c[nH]cn1)NC(=O)[C@@H](NC(=O)[C@H](CCCCN)NC(=O)[C@H](CC(=O)O)NC(=O)[C@H](CCSC)NC(=O)[C@H](C)NC(=O)[C@@H](NC(=O)[C@H](CO)NC(=O)[C@H](Cc1ccc(O)cc1)NC(=O)[C@H](CC(=O)O)NC(=O)[C@H](CO)NC(=O)[C@@H](NC(=O)[C@H](Cc1ccccc1)NC(=O)[C@@H](NC(=O)CNC(=O)[C@@H](N)CCC(=O)O)[C@@H](C)O)[C@@H](C)CC)[C@@H](C)CC)[C@@H](C)CC)C(C)C)C(N)=O [AT103, [hGIP(3-30)NH2—C12/30]] | 121 | 7 | – | – | – | –
CCCCCCCCCCCCCCCCCC(=O)NCCCC[C@H](NC(=O)[C@H](CC(=O)O)NC(=O)[C@H](CCSC)NC(=O)[C@H](C)NC(=O)[C@@H](NC(=O)[C@H](CO)NC(=O)[C@H](Cc1ccc(O)cc1)NC(=O)[C@H](CC(=O)O)NC(=O)[C@H](CO)NC(=O)[C@@H](NC(=O)[C@H](Cc1ccccc1)NC(=O)[C@@H](N)[C@@H](C)O)[C@@H](C)CC)[C@@H](C)CC)C(=O)N[C@H](C(=O)N[C@@H](Cc1c[nH]cn1)C(=O)N[C@@H](CCC(N)=O)C(=O)N[C@@H](CCC(N)=O)C(=O)N[C@@H](CC(=O)O)C(=O)N[C@@H](Cc1ccccc1)C(=O)N[C@H](C(=O)N[C@@H](CC(N)=O)C(=O)N[C@@H](Cc1c[nH]c2ccccc12)C(=O)N[C@@H](CC(C)C)C(=O)N[C@@H](CC(C)C)C(=O)N[C@@H](C)C(=O)N[C@@H](CCC(N)=O)C(=O)N[C@@H](CCCCN)C(N)=O)C(C)C)[C@@H](C)CC [AT128, [hGIP(5-30)NH2—C18/16]] | 114 | 25 | – | – | – | –
